Data published in US4450173A, “Compounds and method for treatment or prophylaxis of cardiac disorders” (American Hospital Supply Corporation, priority 1982, dated 1984).
Like-named read-outs stand apart in the source and are kept apart here.

What was measured:
[1] = target: guinea pig tracheal strips (Cavia porcellus, UniProt Q8K4Z4); experiment: cell-based; type: cell-based; settings: guinea pig trachea, carbachol tension, isoproterenol, 60 minute incubation, pA2 = -log KB
Description: Each tissue was suspended between a fixed glass rod and a Statham® Universal Transducer connected to a Beckman® recorder. Atria were allowed to beat spontaneously under a loading tension of approximately 0.5 gm. Intrinsic depressant for stimulant activity was determined for each compound by progressively increasing concentrations in the tissue baths at 60-minute intervals. Tissues were not washed between increments. […] Changes in rate in response to isoproterenol were measured in the absence and presence of test compounds. Spiral strips of guinea pig trachea were suspended under 5 gm resting tension and incubated with phentolamine, tropolone and cocaine. Active tension was generated by addition of carbachol (3.0×10^-7 M) and decreases in tension in response to isoproterenol were quantitated. Cumulative concentration-response curves were produced with isoproterenol both before and after 60 minute incubation of test compounds with atria and trachea. The blocking potency of test compounds was estimated by computing pA2 values (-log KB) by the method of Furchgott, The Pharmacological Differentiation of Adrenergic Receptors, Ann. […] A ratio greater than one indicates cardioselectivity.

[2] = tested on: guinea pig right atria and guinea pig tracheal strips; experiment: Cardioselectivity, KB tracheal/KB atrial; type: cell-based
Description: Several of the compounds of the present invention were tested for β-blocking activity in vitro using guinea pig right atria and guinea pig tracheal strips mounted in a tissue bath containing oxygenated (95% O2 -5% CO2) Krebs physiological salt solution at 37° C. Each tissue was suspended between a fixed glass rod and a Statham® Universal Transducer connected to a Beckman® recorder. Atria were allowed to beat spontaneously under a loading tension of approximately 0.5 gm. Intrinsic depressant for stimulant activity was determined for each compound by progressively increasing concentrations in the tissue baths at 60-minute intervals. Tissues were not washed between increments. […]. Changes in rate in response to isoproterenol were measured in the absence and presence of test compounds. Spiral strips of guinea pig trachea were suspended under 5 gm resting tension and incubated with phentolamine, tropolone and cocaine. Active tension was generated by addition of carbachol (3.0×10^-7 M) and decreases in tension in response to isoproterenol were quantitated. Cumulative concentration-response curves were produced with isoproterenol both before and after 60 minute incubation of test compounds with atria and trachea. The blocking potency of test compounds was estimated by computing pA2 values (-log KB) by the method of Furchgott, The Pharmacological Differentiation of Adrenergic Receptors, Ann. N.Y. Acad. Sci.; 139: 553-570 (1967). Comparison of blockade of right atrial and tracheal responses to isoproterenol permitted assessment of cardioselectivity of test compounds; […]. A ratio greater than one indicates cardioselectivity. […]

[3] = tested on: heart rate response to isoproterenol (β-receptor mediated tachycardia); experiment: Duration of β-blockade in vivo in anesthetized dogs, 40-minute infusion; design: species or system dog; settings: for ED50: Canis lupus familiaris, iv, 40 min, read-out: Potency (mg/kg/40 min); for 80% Recovery Time: after 40-minute infusion, normalized to 50% inhibition, dogs
Description: (§1) The duration of β-blockade was determined in vivo using pentobartital-anesthetized dogs instrumented for measurement of heart rate using a Beckman® cardiotachometer triggered electronically by a phasic aortic blood pressure signal. Both vagus nerves were severed in the cervical region and the animals were mechanically ventilated. Two experimental designs were used. The first employed a 40-minute infusion of test compound and the second used a 3-hour infusion of test compound. In the 40-minute model, isoproterenol was infused into a foreleg vein at the rate of 0.5 μg/kg/min to induce a β-receptor mediated tachycardia. Various doses of test compound are then infused into a femoral vein over a period of 40 minutes. This infusion was then terminated and recovery from blockade was quantitated. […] This cumulative dose is expressed as mg/kg and is an indication of potency. The time period required for 80% recovery of heart rate response for each dose of test drug was also measured to quantitate duration of action. […] Test compounds were dissolved in 0.9% NaCl and infused at a rate of 0.05 mL/kg/min or less. In the 3-hour infusion model, bolus doses of isoproterenol (0.4 μg/kg) were used to assess the degree of β-blockade and recovery from β-blockade after termination of the infusion. The doses were spaced at 10-minute intervals and were given before, during and following the infusion of test compounds. The infusion rate was adjusted so that at the end of the 3-hour infusion period the degree of isoproterenol inhibition averaged about 50% of control.

[4] = tested on: heart rate response to isoproterenol; experiment: Duration of β-blockade in vivo in anesthetized dogs, 3-hour infusion; design: species or system dog
Description: as §1

[5] = Disappearance in vitro in human whole blood; type: in vitro ADME; settings: 50 μg in 1 mL added to 1 mL human whole blood, 37° C.; read-out: T1/2 Human Whole Blood
Description: (§2) The rate of disappearance of a compound is expressed as the half-life (T1/2), which is the time period in which one-half of the initial amount of compound tested disappears. In each experiment, 1 mL of a solution containing 50 μg of the test compound was added to 1 mL of whole blood or 1 mL of a 33% (w/v) liver homogenate. […] At the designated time periods, the test mixtures were removed from the incubator and transferred to a 0° C. ice bath. Acetonitrile (2 mL) was immediately added and the mixtures were mixed to stop enzymatic hydrolysis. Zero time samples were prepared by adding 2 mL of acetonrile to denature the proteins prior to addition of the test compounds. […] The half life of each test compound was determined graphically by plotting the decrease in concentration as a function of time.

[6] = Disappearance in vitro in dog whole blood; type: in vitro ADME; settings: 50 μg in 1 mL added to 1 mL dog whole blood, 37° C.; read-out: T1/2 Dog Whole Blood
Description: as §2

[7] = Disappearance in vitro in dog liver homogenate; type: in vitro ADME; settings: 50 μg in 1 mL added to 1 mL of 33% (w/v) dog liver homogenate, 37° C.; read-out: T1/2 Dog Liver Homogenate
Description: as §2

Sequence of guinea pig tracheal strips (Q8K4Z4 whole entry): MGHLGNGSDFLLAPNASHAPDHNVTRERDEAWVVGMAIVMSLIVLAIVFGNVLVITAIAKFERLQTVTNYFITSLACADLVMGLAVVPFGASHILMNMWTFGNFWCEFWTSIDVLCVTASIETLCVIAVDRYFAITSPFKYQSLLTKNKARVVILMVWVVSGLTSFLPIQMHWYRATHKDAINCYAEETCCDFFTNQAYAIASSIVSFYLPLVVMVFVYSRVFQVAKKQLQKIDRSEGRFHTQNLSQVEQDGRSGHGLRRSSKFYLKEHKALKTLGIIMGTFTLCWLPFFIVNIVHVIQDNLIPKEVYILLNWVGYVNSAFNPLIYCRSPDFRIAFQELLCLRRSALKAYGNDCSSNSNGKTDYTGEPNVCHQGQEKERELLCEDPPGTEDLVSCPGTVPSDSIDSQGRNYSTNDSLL

pA2 Trachea [1] | half-life [5] [h] | half-life [6] [h] | half-life [7] [min] | Compound | Cardioselectivity ([2]; ratio KB tracheal/KB atrial, greater than one indicates cardioselectivity) | ED50 [3] [mg/kg] | 80% Recovery Time [3] [min] | ED50 ([4]; Canis lupus familiaris, iv, 3-hour infusion, bolus isoproterenol 0.4 μg/kg, read-out: Potency (mg/kg/180 min)) [mg/kg] | 80% Recovery Time ([4]; after 3-hour infusion) [min] | % I (Percent inhibition of heart rate response to isoproterenol) ([4]; end of 3-hour infusion, bolus isoproterenol 0.4 μg/kg) [%] | Cardioselectivity [2]
7.4 | 2.58 ± 0.15 | 3 | 3 ± 1 | CCOC(=O)CCNCC(O)COc1ccccc1C (centres unmarked) [X] | 1 | 0.99 ± 0.27 | 14 ± 2 | 6.8 | > 60 | 69 ± 5 | 
7.4 | 1.55 ± 0.5 | 2.53 ± 1.18 | 8.8 ± 6 | CCOC(=O)CCCCNCC(O)COc1ccccc1C (centres unmarked) [XII] |  | 6.8 ± 3.7 | 11 ± 2 |  |  |  | 2.5
